Results: patent publication US8318726B2, “Benzylidineanthracenone linked pyrrolobenzodiazepine hybrids useful as anticancer agents and process for the preparation thereof” (Council of Scientific & Industrial Research, priority 2010, dated 2012)
Like-named read-outs stand apart in the source and are kept apart here.

Legend:
[1] = tested on: duplex-form calf thymus DNA (CT-DNA); test: Thermal denaturation studies with calf thymus DNA; format: binding; conditions: [PBD]:[DNA] molar ratio 1:5, CT-DNA 100 μM, ligand 20 μM, pH 7.00
Description: Compounds were subjected to thermal denaturation studies with duplex-form calf thymus DNA (CT-DNA) using an adaptation of a reported procedure. Working solutions in aqueous buffer (10 mM NaH2PO41Na2HPO4, 1 mM Na2EDTA, pH 7.00±0.01) containing CT-DNA (100 μm in phosphate) and the PBD (20 μm) were prepared by addition of concentrated PBD solutions in DMSO to obtain a fixed [PBD]/[DNA] molar ratio of 1:5. The DNA-PBD solutions were incubated at 37° C. for 0, 18, and 36 h prior to analysis. Samples were monitored at 260 nm using a Beckman DU-7400 spectrophotometer fitted with high performance temperature controller, and heating was applied at 1° C. min^−1 in the 40-90° C. range. DNA helix→coil transition temperatures (Tm) were obtained from the maxima in the d(A260)/dT derivative plots. Results are given as the mean±standard deviation from three determinations and are corrected for the effects of DMSO co-solvent using a linear correction term. Drug-induced alterations in DNA melting behaviour are given by: ΔTm=Tm(DNA+PBD)−Tm (DNA alone), where the Tm value for the PBD-free CT-DNA is 69.0±0.01.
For a 1:5 molar ratio of [PBD]/[DNA], where CT-DNA concentration=100 μM and ligand concentration=20 μM in aqueous sodium phosphate buffer [10 mM sodium phosphate+1 mM EDTA, pH 7.00±0.01]. The ΔTm for PBD hybrids 5b, 5c, 5d, 5h, 5m and 5r at a [PBD]:[DNA] molar ratio of 1:5 increased to a value of 7.5° C., 9.3° C., 8.9° C., 8.0° C., 7.1° C., and 8.4° C. after 18 h incubation respectively.

[2] = tested on: lung cancer cell lines (HoP62); test: In vitro cytotoxicity, SRB assay, lung cancer Hop62; format: cell-based, human; conditions: Homo sapiens, HOP-62
Text: (§1) The C8-linked benzylidineanthracenone-PBD hybrids have been tested against eight human tumor cell lines derived from seven cancer types (breast, ovarian, colon, prostate, cervix, lung and oral cancer). For each compound, dose response curves for individual cell lines have been measured at a minimum of five concentrations at 10 fold dilutions. A protocol of 48 hrs continuous drug exposure has been used, and a sulforhodamine B (SRB) protein assay was used to estimate cell viability or growth. The results are expressed as percent of cell growth determined relative to that of untreated control cells. The GI50 values are the concentration for 50% cell growth inhibition (GI50) compared with the control has been calculated.

[3] = tested on: ovarian cancer cell lines (A2780); test: In vitro cytotoxicity, SRB assay, ovarian cancer A2780; format: cell-based, human; conditions: Homo sapiens
Text: as §1

[4] = tested on: cervix cancer cell lines (SiHa); test: In vitro cytotoxicity, SRB assay, cervix cancer SiHa; format: cell-based, human; conditions: Homo sapiens
Text: as §1

[5] = tested on: prostate cancer cell lines (PC3); test: In vitro cytotoxicity, SRB assay, prostate cancer PC-3; format: cell-based, human; conditions: Homo sapiens
Text: as §1

[6] = tested on: colon cancer cell lines (Colo205); test: In vitro cytotoxicity, SRB assay, colon cancer Colo205; format: cell-based, human; conditions: Homo sapiens, COLO 205
Text: as §1

[7] = tested on: breast cancer cell lines (MCF7); test: In vitro cytotoxicity, SRB assay, breast cancer MCF7; format: cell-based, human; conditions: Homo sapiens
Text: as §1

[8] = tested on: lung cancer cell lines (A549); test: In vitro cytotoxicity, SRB assay, lung cancer A-549; format: cell-based, human; conditions: Homo sapiens
Text: as §1

[9] = tested on: oral cancer cell lines (KB); test: In vitro cytotoxicity, SRB assay, oral cancer KB; format: cell-based, human; conditions: Homo sapiens
Text: as §1

[10] = Lung Hop62, 48 hrs continuous drug exposure, SRB, read-out: GI50
[11] = lung cancer cell lines (HoP62), exposure period of at least 48 hrs, read-out: GI50 (range for the group)
[12] = Ovarian A2780, 48 hrs continuous drug exposure, SRB, read-out: GI50
[13] = ovarian cancer cell lines (A2780), exposure period of at least 48 hrs, read-out: GI50 (range for the group)
[14] = Cervix SiHa, 48 hrs continuous drug exposure, SRB, read-out: GI50
[15] = cervix cancer cell lines (SiHa), exposure period of at least 48 hrs, read-out: GI50 (range for the group)
[16] = Prostate PC-3, 48 hrs continuous drug exposure, SRB, read-out: GI50
[17] = prostate cancer cell lines (PC3), exposure period of at least 48 hrs, read-out: GI50 (range for the group)
[18] = Colon Colo205, 48 hrs continuous drug exposure, SRB, read-out: GI50
[19] = colon cancer cell lines (Colo205), exposure period of at least 48 hrs, read-out: GI50 (range for the group)
[20] = Breast MCF7, 48 hrs continuous drug exposure, SRB, read-out: GI50
[21] = breast cancer cell lines (MCF7), exposure period of at least 48 hrs, read-out: GI50 (range for the group)
[22] = A549, Lung A-549, 48 hrs continuous drug exposure, SRB, read-out: GI50
[23] = lung cancer cell lines (A549), exposure period of at least 48 hrs, read-out: GI50 (range for the group)
[24] = Oral KB, 48 hrs continuous drug exposure, SRB, read-out: GI50
[25] = oral cancer cell lines (KB), exposure period of at least 48 hrs, read-out: GI50 (range for the group)

Row | Compound | ΔTm, drug-induced shift in DNA melting temperature ([1]; 0 h incubation at 37° C.) [°C] | ΔTm, drug-induced shift in DNA melting temperature ([1]; 18 h incubation at 37° C.) [°C] | GI50 [2, 10] [nM] | GI50 [2, 11] [nM] | GI50 [3, 12] [nM] | GI50 [3, 13] [nM] | GI50 [4, 14] [nM] | GI50 [4, 15] [nM] | GI50 [5, 16] [nM] | GI50 [5, 17] [nM] | GI50 [6, 18] [nM] | GI50 [6, 19] [nM] | GI50 [7, 20] [nM] | GI50 [7, 21] [nM] | GI50 [8, 22] [nM] | GI50 [8, 23] [nM] | GI50 [9, 24] [nM] | GI50 [9, 25] [nM]
1 | COc1cc(C=C2c3ccccc3C(=O)c3ccccc32)ccc1O [2a, 4-hydroxy-3-methoxybenzylidineanthracenone, reference compound] | 0.4 | 0.8 | – | – | – | – | – | – | – | – | – | – | – | – | – | – | – | –
2 | COc1cc(C=C2c3ccccc3C(=O)c3ccccc32)ccc1OCCCOc1cc2c(cc1OC)C(=O)N1CCC[C@H]1C=N2 [5b, 7-methoxy-8-(3-{2-methoxy-4-[(10-oxo-9,10-dihydro-9-anthracenyliden)methyl]phenoxy}propoxy)-(11aS)-1,2,3,11a-5H-pyrrolo[2,1-c][1,4]benzodiazepin-5-one] | 6.1 | 7.5 | 190 | 170 to 260 | 148 | 148 to 168 | 2200 | 2200 to 31000 | 180 | 150 to 2200 | 110 | 110 to 140 | 140 | 90 to 180 | 1760 | 155 to 1940 | 190 | 180 to 2500
3 | COc1cc(C=C2c3ccccc3C(=O)c3ccccc32)ccc1OCCCCOc1cc2c(cc1OC)C(=O)N1CCC[C@H]1C=N2 [5c, 7-methoxy-8-(4-{2-methoxy-4-[(10-oxo-9,10-dihydro-9-anthracenyliden)methyl]phenoxy}butoxy)-(11aS)-1,2,3,11a-5H-pyrrolo[2,1-c][1,4]benzodiazepin-5-one] | 7.7 | 9.3 | 180 | 170 to 260 | 150 | 148 to 168 | – | – | 180 | 150 to 2200 | 120 | 110 to 140 | 90 | 90 to 180 | 1800 | 155 to 1940 | 200 | 180 to 2500
4 | COc1cc(C=C2c3ccccc3C(=O)c3ccccc32)ccc1OCCCCCOc1cc2c(cc1OC)C(=O)N1CCC[C@H]1C=N2 [5d, 7-methoxy-8-(5-{2-methoxy-4-[(10-oxo-9,10-dihydro-9-anthracenyliden)methyl]phenoxy}pentoxy)-(11aS)-1,2,3,11a-5H-pyrrolo[2,1-c][1,4]benzodiazepin-5-one] | 7.4 | 8.9 | 170 | 170 to 260 | 150 | 148 to 168 | 2200 | 2200 to 31000 | 150 | 150 to 2200 | – | – | 150 | 90 to 180 | 1940 | 155 to 1940 | 180 | 180 to 2500
5 | COc1cc2c(cc1OCCCCOc1ccc(C=C3c4ccccc4C(=O)c4ccccc43)cc1)N=C[C@@H]1CCCN1C2=O [5h, 7-methoxy-8-(4-{4-[(10-oxo-9,10-dihydro-9-anthracenyliden)methyl]phenoxy}butoxy)-(11aS)-1,2,3,11a-5H-pyrrolo[2,1-c][1,4]benzodiazepin-5-one] | 6.6 | 8.0 | 200 | 170 to 260 | 168 | 148 to 168 | 2500 | 2200 to 31000 | 2200 | 150 to 2200 | 110 | 110 to 140 | 160 | 90 to 180 | 150 | 155 to 1940 | 2400 | 180 to 2500
6 | COc1cc2c(cc1OCCCCOc1cccc(C=C3c4ccccc4C(=O)c4ccccc43)c1)N=C[C@@H]1CCCN1C2=O [5m, 7-methoxy-8-(4-{3-[(10-oxo-9,10-dihydro-9-anthracenyliden)methyl]phenoxy}butoxy)-(11aS)-1,2,3,11a-5H-pyrrolo[2,1-c][1,4]benzodiazepin-5-one] | 6.5 | 7.1 | 230 | 170 to 260 | 160 | 148 to 168 | 2200 | 2200 to 31000 | 180 | 150 to 2200 | 140 | 110 to 140 | 170 | 90 to 180 | 1820 | 155 to 1940 | 2400 | 180 to 2500
7 | COc1ccc(C=C2c3ccccc3C(=O)c3ccccc32)cc1OCCCCOc1cc2c(cc1OC)C(=O)N1CCC[C@H]1C=N2 [5r, 7-methoxy-8-(4-{2-methoxy-5-[(10-oxo-9,10-dihydro-9-anthracenyliden)methyl]phenoxy}butoxy)-(11aS)-1,2,3,11a-5H-pyrrolo[2,1-c][1,4]benzodiazepin-5-one] | 6.3 | 8.4 | 260 | 170 to 260 | 166 | 148 to 168 | 31000 | 2200 to 31000 | 2100 | 150 to 2200 | 140 | 110 to 140 | 180 | 90 to 180 | 1900 | 155 to 1940 | 2500 | 180 to 2500
